In patent US8969516B2, “Method of hydrolysis of peptide bond” (priority 2006, dated 2015):

Assay: MALDI-TOF screening of Ni^2+ dependent hydrolysis in a combinatorial peptide library
Format: physicochemical
Settings: Ni^2+ 2 mM, pH 8.2, 10 mM Tris, score=24/tm
Source text: The sequence CH3CO-Gly-Ala-Ser/Thr-X-His-Z-Lys-Phe-Leu-NH2 was designed so that the fixed R1 and R2 sequences, CH3CO-Gly-Ala, and Lys-Phe-Leu-NH2, respectively, allowed optimal detection by MALDI-TOF mass spectrometry of substrates as well as expected products, Ser/Thr-X-His-Z-Lys-Phe-Leu-NH2 and assured separation between the clusters of signals for substrates and products in sublibraries (see below).
Residues in position X included all amino acids commonly present in proteins, except for Asp, Glu, and Cys. The former two contain carboxylates in their side chains, which may bind Ni^2+ in a way which would quench or slow down the hydrolysis reaction. The Cys residue may do the same, and also may engage in side reactions with Ni^2+ ions, including redox processes (for example see Bal and Kasprzak, Toxicol. Lett. 2002, 127, 55-62). Only the Cys residue was eliminated from position Z, for the same reasons.
The synthesis of the library was accomplished on a RINK amide resin (Novabiochem) on a 800 mg scale, according to a typical Fmoc protocol (Fields, Meth. Enzymol. Vol. 289). The resin-attached Leu-Phe-Lys peptide was synthesised first and coupled with the isokinetic mixture of 19 amino acids selected for position Z, and then with the H is residue. The resin carrying the library of pentapeptides was divided into Ser and Thr halves at this stage, and each of these halves into 17 portions, which were coupled with individual amino acids selected for position X. The coupling with Ser or Thr as appropriate, additions of Ala and Gly residues, acetylation of Gly, deprotection and cleavage from the resin were accomplished subsequently. Each of the resulting 34 samples of sublibraries randomized at position X was separated into two portions, one for the reaction at 37° C. and another for the reaction at 45° C. The hydrolysis reactions were accomplished in 10 mM Tris buffers at pH 8.2. The total concentrations of peptide mixtures and Ni^2+ ions were 1 mM and 2 mM, respectively. The pH for the reaction was chosen as selective for highly reactive sequences.
The detection of reaction products was accomplished with the use of a MALDI-TOF mass spectrometer (Micromass). The aliquots were removed from reaction mixtures and measured by MS at 2, 4, 6, and 8 hours of incubation. The progress of reaction was evaluated by visual detection in mass spectra of appearance of signals corresponding to expected products of hydrolysis, Ser/Thr-X-His-Z-Lys-Phe-Leu-NH2, at given measurement times, tm. […] Also the decrease of signals of substrates was controlled in these cases.
Residues X and Z were then sorted according to various molecular parameters, describing their physical properties (Carugo, In Silico Biol. 2003, 3, 0035). […] The Ser library provided a higher number of reactive peptides than the Thr library. Following the additivity of effects, the scores were also summed up in lines and columns of Table 1A-D, thereby creating final rankings for preferred substitutions in positions X and Z.

[1] = CH3CO-Gly-Ala-Ser-X-His-Z-Lys-Phe-Leu-NH2 library, 37° C.
[2] = CH3CO-Gly-Ala-Ser-X-His-Z-Lys-Phe-Leu-NH2 library, 45° C.
[3] = CH3CO-Gly-Ala-Thr-X-His-Z-Lys-Phe-Leu-NH2 library, 37° C.
[4] = CH3CO-Gly-Ala-Thr-X-His-Z-Lys-Phe-Leu-NH2 library, 45° C.

Row | Substance | hydrolysis score from MALDI-TOF screening [1] | hydrolysis score from MALDI-TOF screening [2] | hydrolysis score from MALDI-TOF screening [3] | hydrolysis score from MALDI-TOF screening [4]
1 | Ac-GASYHEKFL-NH2 [SYHE] | 0 (a score of 0 if no trace of the product of hydrolysis was seen after 8 hours of incubation) | 0 (a score of 0 if no trace of the product of hydrolysis was seen after 8 hours of incubation) | – | –
2 | Ac-GATWHAKFL-NH2 [TWHA] | – | – | 0 (a score of 0 if no trace of the product of hydrolysis was seen after 8 hours of incubation) | 0 (a score of 0 if no trace of the product of hydrolysis was seen after 8 hours of incubation)
3 | Ac-GASSHSKFL-NH2 [SSHS] | 0 (a score of 0 if no trace of the product of hydrolysis was seen after 8 hours of incubation) | 3 (a score of 3 for detection at 8 hours) | – | –
4 | Ac-GASLHWKFL-NH2 [SLHW] | 3 (a score of 3 for detection at 8 hours) | 4 (a score of 4 for detection at 6 hours) | – | –
5 | Ac-GASFHNKFL-NH2 [SFHN] | 0 (a score of 0 if no trace of the product of hydrolysis was seen after 8 hours of incubation) | 0 (a score of 0 if no trace of the product of hydrolysis was seen after 8 hours of incubation) | – | –
6 | Ac-GATTHIKFL-NH2 [TTHI] | – | – | 0 (a score of 0 if no trace of the product of hydrolysis was seen after 8 hours of incubation) | 0 (a score of 0 if no trace of the product of hydrolysis was seen after 8 hours of incubation)
7 | Ac-GASQHPKFL-NH2 [SQHP] | 0 (a score of 0 if no trace of the product of hydrolysis was seen after 8 hours of incubation) | 0 (a score of 0 if no trace of the product of hydrolysis was seen after 8 hours of incubation) | – | –
8 | Ac-GATNHIKFL-NH2 [TNHI] | – | – | 0 (a score of 0 if no trace of the product of hydrolysis was seen after 8 hours of incubation) | 0 (a score of 0 if no trace of the product of hydrolysis was seen after 8 hours of incubation)
9 | Ac-GATPHKKFL-NH2 [TPHK] | – | – | – | 0 (a score of 0 if no trace of the product of hydrolysis was seen after 8 hours of incubation)
10 | Ac-GASSHEKFL-NH2 [SSHE] | 0 (a score of 0 if no trace of the product of hydrolysis was seen after 8 hours of incubation) | 3 (a score of 3 for detection at 8 hours) | – | –
11 | Ac-GASHHQKFL-NH2 [SHHQ] | 0 (a score of 0 if no trace of the product of hydrolysis was seen after 8 hours of incubation) | 0 (a score of 0 if no trace of the product of hydrolysis was seen after 8 hours of incubation) | – | –
12 | Ac-GASRHAKFL-NH2 [SRHA] | 3 (a score of 3 for detection at 8 hours) | 6 (a score of 6 for detection at 4 hours) | – | –
13 | Ac-GATIHDKFL-NH2 [TIHD] | – | – | 0 (a score of 0 if no trace of the product of hydrolysis was seen after 8 hours of incubation) | 0 (a score of 0 if no trace of the product of hydrolysis was seen after 8 hours of incubation)
14 | Ac-GATMHMKFL-NH2 [TMHM] | – | – | 0 (a score of 0 if no trace of the product of hydrolysis was seen after 8 hours of incubation) | 0 (a score of 0 if no trace of the product of hydrolysis was seen after 8 hours of incubation)
15 | Ac-GASIHRKFL-NH2 [SIHR] | 3 (a score of 3 for detection at 8 hours) | 3 (a score of 3 for detection at 8 hours) | – | –
16 | Ac-GATFHDKFL-NH2 [TFHD] | – | – | 0 (a score of 0 if no trace of the product of hydrolysis was seen after 8 hours of incubation) | 0 (a score of 0 if no trace of the product of hydrolysis was seen after 8 hours of incubation)

Row | Substance | hydrolysis score from MALDI-TOF screening [1] | hydrolysis score from MALDI-TOF screening [2] | hydrolysis score from MALDI-TOF screening [3] | hydrolysis score from MALDI-TOF screening [4]
17 | Ac-GATPHRKFL-NH2 [TPHR] | – | – | – | 0 (a score of 0 if no trace of the product of hydrolysis was seen after 8 hours of incubation)
18 | Ac-GATVHDKFL-NH2 [TVHD] | – | – | 0 (a score of 0 if no trace of the product of hydrolysis was seen after 8 hours of incubation) | 0 (a score of 0 if no trace of the product of hydrolysis was seen after 8 hours of incubation)
19 | Ac-GATVHGKFL-NH2 [TVHG] | – | – | 0 (a score of 0 if no trace of the product of hydrolysis was seen after 8 hours of incubation) | 0 (a score of 0 if no trace of the product of hydrolysis was seen after 8 hours of incubation)
20 | Ac-GATYHHKFL-NH2 [TYHH] | – | – | 0 (a score of 0 if no trace of the product of hydrolysis was seen after 8 hours of incubation) | 0 (a score of 0 if no trace of the product of hydrolysis was seen after 8 hours of incubation)
21 | Ac-GATSHGKFL-NH2 [TSHG] | – | – | 0 (a score of 0 if no trace of the product of hydrolysis was seen after 8 hours of incubation) | 0 (a score of 0 if no trace of the product of hydrolysis was seen after 8 hours of incubation)
22 | Ac-GASNHFKFL-NH2 [SNHF] | 3 (a score of 3 for detection at 8 hours) | 3 (a score of 3 for detection at 8 hours) | – | –
23 | Ac-GATPHHKFL-NH2 [TPHH] | – | – | – | 0 (a score of 0 if no trace of the product of hydrolysis was seen after 8 hours of incubation)
24 | Ac-GATTHLKFL-NH2 [TTHL] | – | – | 0 (a score of 0 if no trace of the product of hydrolysis was seen after 8 hours of incubation) | 0 (a score of 0 if no trace of the product of hydrolysis was seen after 8 hours of incubation)
25 | Ac-GATRHQKFL-NH2 [TRHQ] | – | – | 0 (a score of 0 if no trace of the product of hydrolysis was seen after 8 hours of incubation) | 0 (a score of 0 if no trace of the product of hydrolysis was seen after 8 hours of incubation)
26 | Ac-GATRHMKFL-NH2 [TRHM] | – | – | 3 (a score of 3 for detection at 8 hours) | 4 (a score of 4 for detection at 6 hours)
27 | Ac-GATWHFKFL-NH2 [TWHF] | – | – | 0 (a score of 0 if no trace of the product of hydrolysis was seen after 8 hours of incubation) | 0 (a score of 0 if no trace of the product of hydrolysis was seen after 8 hours of incubation)
28 | Ac-GASFHPKFL-NH2 [SFHP] | 0 (a score of 0 if no trace of the product of hydrolysis was seen after 8 hours of incubation) | 0 (a score of 0 if no trace of the product of hydrolysis was seen after 8 hours of incubation) | – | –
29 | Ac-GASRHHKFL-NH2 [SRHH] | 4 (a score of 4 for detection at 6 hours) | 4 (a score of 4 for detection at 6 hours) | – | –
30 | Ac-GASIHNKFL-NH2 [SIHN] | 0 (a score of 0 if no trace of the product of hydrolysis was seen after 8 hours of incubation) | 0 (a score of 0 if no trace of the product of hydrolysis was seen after 8 hours of incubation) | – | –
31 | Ac-GASVHFKFL-NH2 [SVHF] | 0 (a score of 0 if no trace of the product of hydrolysis was seen after 8 hours of incubation) | 3 (a score of 3 for detection at 8 hours) | – | –
32 | Ac-GASNHPKFL-NH2 [SNHP] | 0 (a score of 0 if no trace of the product of hydrolysis was seen after 8 hours of incubation) | 0 (a score of 0 if no trace of the product of hydrolysis was seen after 8 hours of incubation) | – | –
